Experiments:
[1] = tested on: proinflammatory analytes in paw tissue; conditions: cited from earlier work
MSK2_h = biological target: T1, MSK2_h (Homo sapiens, UniProt O75676); assay: SelectScreen kinase assay; type: biochemical; conditions: KM ATP, read-out: % control
T1 construct: purchased Life Technologies (Invitrogen) SelectScreen, Z'-LYTE / Adapta

PKC-eta_h = biological target: T2, PKC-eta_h (Homo sapiens, UniProt P24723); assay: SelectScreen kinase assay; type: biochemical; conditions: KM ATP, read-out: % control
T2 construct: purchased Life Technologies (Invitrogen) SelectScreen, Z'-LYTE / Adapta

ZIPK_h = biological target: T3, ZIPK_h (Homo sapiens, UniProt O43293); assay: SelectScreen kinase assay; type: biochemical; conditions: KM ATP, read-out: % control
T3 construct: purchased Life Technologies (Invitrogen) SelectScreen, Z'-LYTE / Adapta

RetA = biological target: T4, RetA (Homo sapiens, UniProt P07949); assay: Ret A HTRF assay; type: biochemical; conditions: in-house, mean ± SD
T4 construct: purchased Life Technologies PV3819
Procedure: CC-509 was prepared at a concentration of 1.5 mM in DMSO followed by 3-fold dilutions in Greiner […] polypropylene plates. A 1:4 dilution of compounds by 8 μL/well transfer from the polypropylene plates to 24 μL/well Assay Buffer (50 mM HEPES pH 7.6, 1 mM DTT, 10 mM MgCl2, 0.01% Triton X-100, 0.01% BSA and 0.1 mM EDTA) in Costar 3710 384 well black plates was then performed. Kinases (13 μL/well of 31 ng/ml RetA (Life Technologies, Grand Island, NY PV3819) in Assay Buffer) or Assay Buffer only (background controls) were added to Costar 3710 384-well black plates for the HTRF assays and compound (2 μL/ well) was added from the 1:4 dilution plate. […] Time resolved fluorescence was read in assay plates on a PerkinElmer EnVision. […] The IC50 value was determined as described in the data fitting section below.
For the TEL-Syk assay, the intensity values for the 700 and 800 channel were exported as text files in ActivityBase (IDBS, Guildford, UK) to derive the ratios that reflect kinase activity. […] For the JAK2 HEL and Ramos NFAT β-lactamase assays, the fluorescence values obtained at 460 nm and 530 nm were exported into ActivityBase to calculate response ratios. […] Evans blue dye extravasation was expressed as mean ± SEM and % inhibition for the test article groups was normalized to the cromolyn positive control. […] Data is expressed as mean ± SEM of each group with n = 6–12. […]

5-lipoxygenase = biological target: T5, 5-lipoxygenase (Homo sapiens, UniProt P09917); assay: non-kinase enzyme panel (CEREP); type: biochemical
T5 construct: CEREP (contract assay)
Procedure: (§1) Syk kinase mode of inhibition studies, including parameters described in Fig 1, were conducted on the LC3000 platform by Caliper Life Sciences (Hopkinton, MA) according to standard protocols developed by the supplier. […] Non-kinase enzyme assays and GPCR, ion channel, and transporter binding assays were run by CEREP (France). Non-GLP manual patch clamp hERG assays were run by ChanTest (Cleveland, Ohio). Vivid® Assay kits (Life Technologies) were used to measure the cytochrome P450 inhibition of the compound against CYP3A, CYP2C9, CYP2C19, CYP2D6, and CYP1A2, as described.

PDE2A = biological target: T6, PDE2A (Homo sapiens, UniProt O00408); assay: non-kinase enzyme panel (CEREP); type: biochemical
T6 construct: purchased CEREP (contract assay)
Procedure: as §1

PDE5 = biological target: T7, PDE5 (Homo sapiens, UniProt O76074); assay: non-kinase enzyme panel (CEREP); type: biochemical
T7 construct: purchased CEREP (contract assay)
Procedure: as §1

Adenosine A1 = biological target: T8, Adenosine A1 (Homo sapiens, UniProt P30542); assay: receptor, ion channel, transporter binding panel (CEREP)
T8 construct: CEREP (contract assay)
Procedure: as §1

Adenosine A2a = biological target: T9, Adenosine A2a (Homo sapiens, UniProt P29274); assay: as above
T9 construct: CEREP (contract assay)
Procedure: as §1

Adenosine A3 = biological target: T10, Adenosine A3 (Homo sapiens, UniProt P0DMS8); assay: as above
T10 construct: CEREP (contract assay)
Procedure: as §1

[2] = preclinical toxicology studies, myelosuppression in male rats; type: in vivo, rat

T5 sequence (P09917 whole entry, species assumed): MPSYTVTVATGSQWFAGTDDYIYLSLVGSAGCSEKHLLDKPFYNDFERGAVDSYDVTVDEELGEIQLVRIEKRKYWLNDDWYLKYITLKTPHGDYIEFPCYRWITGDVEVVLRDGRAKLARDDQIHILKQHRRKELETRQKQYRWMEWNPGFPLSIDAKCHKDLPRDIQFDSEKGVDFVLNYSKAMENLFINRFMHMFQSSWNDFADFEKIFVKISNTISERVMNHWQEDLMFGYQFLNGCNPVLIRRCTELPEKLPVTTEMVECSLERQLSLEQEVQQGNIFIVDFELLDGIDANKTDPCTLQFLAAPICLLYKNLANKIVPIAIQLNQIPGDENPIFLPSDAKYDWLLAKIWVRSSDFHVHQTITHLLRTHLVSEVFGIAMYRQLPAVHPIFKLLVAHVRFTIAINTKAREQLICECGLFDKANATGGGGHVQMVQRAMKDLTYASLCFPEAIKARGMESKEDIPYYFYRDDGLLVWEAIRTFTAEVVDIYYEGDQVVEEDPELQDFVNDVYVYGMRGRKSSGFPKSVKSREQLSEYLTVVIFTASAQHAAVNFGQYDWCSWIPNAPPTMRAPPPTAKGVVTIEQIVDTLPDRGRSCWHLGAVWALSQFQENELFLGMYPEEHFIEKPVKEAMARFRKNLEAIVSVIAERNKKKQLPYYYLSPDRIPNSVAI
T3 sequence (O43293 whole entry): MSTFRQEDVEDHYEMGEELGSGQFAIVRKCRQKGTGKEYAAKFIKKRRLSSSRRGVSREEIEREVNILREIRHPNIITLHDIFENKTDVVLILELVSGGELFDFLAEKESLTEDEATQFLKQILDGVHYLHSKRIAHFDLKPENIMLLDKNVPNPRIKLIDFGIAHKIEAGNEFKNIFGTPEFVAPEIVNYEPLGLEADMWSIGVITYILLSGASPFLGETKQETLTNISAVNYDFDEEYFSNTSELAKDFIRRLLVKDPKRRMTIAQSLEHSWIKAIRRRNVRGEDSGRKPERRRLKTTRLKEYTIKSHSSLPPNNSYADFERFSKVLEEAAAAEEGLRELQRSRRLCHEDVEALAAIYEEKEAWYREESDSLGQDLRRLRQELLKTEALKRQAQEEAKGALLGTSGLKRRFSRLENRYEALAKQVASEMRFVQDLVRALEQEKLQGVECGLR
T9 sequence (P29274 whole entry): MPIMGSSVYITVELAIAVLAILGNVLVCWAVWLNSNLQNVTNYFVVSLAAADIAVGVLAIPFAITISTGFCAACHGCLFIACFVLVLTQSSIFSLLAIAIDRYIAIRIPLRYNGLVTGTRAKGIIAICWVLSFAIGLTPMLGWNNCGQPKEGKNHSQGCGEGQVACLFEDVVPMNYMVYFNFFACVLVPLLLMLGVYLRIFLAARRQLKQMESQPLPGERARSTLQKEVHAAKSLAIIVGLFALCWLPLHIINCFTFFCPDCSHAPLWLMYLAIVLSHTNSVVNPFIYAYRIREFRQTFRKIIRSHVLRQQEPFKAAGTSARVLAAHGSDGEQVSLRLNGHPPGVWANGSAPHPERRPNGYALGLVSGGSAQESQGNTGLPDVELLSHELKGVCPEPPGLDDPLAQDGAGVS
T8 sequence (P30542 whole entry): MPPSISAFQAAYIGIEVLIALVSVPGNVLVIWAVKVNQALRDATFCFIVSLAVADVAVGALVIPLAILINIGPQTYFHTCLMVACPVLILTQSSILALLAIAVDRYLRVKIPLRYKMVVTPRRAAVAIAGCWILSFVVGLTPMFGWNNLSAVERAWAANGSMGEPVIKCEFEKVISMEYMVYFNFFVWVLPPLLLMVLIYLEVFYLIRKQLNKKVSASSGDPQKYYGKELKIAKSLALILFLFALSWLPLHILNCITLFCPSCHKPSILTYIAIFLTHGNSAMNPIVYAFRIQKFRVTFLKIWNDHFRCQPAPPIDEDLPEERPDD
T1 sequence (O75676 whole entry): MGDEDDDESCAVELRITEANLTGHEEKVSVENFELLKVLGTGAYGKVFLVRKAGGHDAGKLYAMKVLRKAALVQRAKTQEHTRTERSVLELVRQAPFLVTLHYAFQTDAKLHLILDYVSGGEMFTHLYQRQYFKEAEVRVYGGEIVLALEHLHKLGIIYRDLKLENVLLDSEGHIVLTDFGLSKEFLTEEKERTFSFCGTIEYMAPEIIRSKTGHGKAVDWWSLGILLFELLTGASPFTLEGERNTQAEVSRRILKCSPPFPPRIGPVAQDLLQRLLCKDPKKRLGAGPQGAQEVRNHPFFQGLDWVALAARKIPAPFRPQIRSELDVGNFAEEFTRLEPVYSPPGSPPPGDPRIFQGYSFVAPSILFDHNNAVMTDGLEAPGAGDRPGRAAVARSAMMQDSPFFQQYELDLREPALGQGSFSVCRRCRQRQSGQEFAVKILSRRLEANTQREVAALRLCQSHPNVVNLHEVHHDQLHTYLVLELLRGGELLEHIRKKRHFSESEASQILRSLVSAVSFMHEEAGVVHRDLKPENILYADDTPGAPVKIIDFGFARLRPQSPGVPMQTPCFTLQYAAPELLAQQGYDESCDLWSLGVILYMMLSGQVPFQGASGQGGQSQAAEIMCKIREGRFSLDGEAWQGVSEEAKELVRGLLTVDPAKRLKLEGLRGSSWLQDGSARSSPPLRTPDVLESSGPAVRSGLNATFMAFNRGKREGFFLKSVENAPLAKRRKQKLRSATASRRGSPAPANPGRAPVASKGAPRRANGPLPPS
T10 sequence (P0DMS8 whole entry): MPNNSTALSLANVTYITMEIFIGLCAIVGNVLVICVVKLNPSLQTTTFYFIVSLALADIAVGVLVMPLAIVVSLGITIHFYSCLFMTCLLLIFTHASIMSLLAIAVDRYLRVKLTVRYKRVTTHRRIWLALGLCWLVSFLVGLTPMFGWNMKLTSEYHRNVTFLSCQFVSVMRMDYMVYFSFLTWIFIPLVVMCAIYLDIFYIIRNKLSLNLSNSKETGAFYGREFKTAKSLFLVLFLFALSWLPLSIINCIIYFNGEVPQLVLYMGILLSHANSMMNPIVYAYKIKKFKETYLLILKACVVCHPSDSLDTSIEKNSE
T2 sequence (P24723 whole entry): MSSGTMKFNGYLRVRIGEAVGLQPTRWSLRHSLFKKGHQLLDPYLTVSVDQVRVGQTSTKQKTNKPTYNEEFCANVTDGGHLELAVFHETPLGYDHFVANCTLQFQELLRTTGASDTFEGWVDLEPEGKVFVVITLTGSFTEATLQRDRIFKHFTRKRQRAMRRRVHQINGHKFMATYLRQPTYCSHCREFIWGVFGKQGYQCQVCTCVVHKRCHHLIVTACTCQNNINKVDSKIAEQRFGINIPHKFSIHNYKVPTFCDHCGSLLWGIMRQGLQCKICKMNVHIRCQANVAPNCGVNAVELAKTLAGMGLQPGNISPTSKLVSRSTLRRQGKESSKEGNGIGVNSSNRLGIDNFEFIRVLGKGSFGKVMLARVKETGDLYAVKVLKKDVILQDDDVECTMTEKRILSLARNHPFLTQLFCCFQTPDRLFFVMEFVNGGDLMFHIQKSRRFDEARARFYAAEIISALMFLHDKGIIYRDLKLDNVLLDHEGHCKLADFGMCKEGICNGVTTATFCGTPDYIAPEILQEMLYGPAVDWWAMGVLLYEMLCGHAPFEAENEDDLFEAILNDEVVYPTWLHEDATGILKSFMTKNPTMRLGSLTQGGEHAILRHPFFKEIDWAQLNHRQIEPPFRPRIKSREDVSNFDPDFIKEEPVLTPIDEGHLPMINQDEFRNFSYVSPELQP
T6 sequence (O00408 whole entry, species assumed): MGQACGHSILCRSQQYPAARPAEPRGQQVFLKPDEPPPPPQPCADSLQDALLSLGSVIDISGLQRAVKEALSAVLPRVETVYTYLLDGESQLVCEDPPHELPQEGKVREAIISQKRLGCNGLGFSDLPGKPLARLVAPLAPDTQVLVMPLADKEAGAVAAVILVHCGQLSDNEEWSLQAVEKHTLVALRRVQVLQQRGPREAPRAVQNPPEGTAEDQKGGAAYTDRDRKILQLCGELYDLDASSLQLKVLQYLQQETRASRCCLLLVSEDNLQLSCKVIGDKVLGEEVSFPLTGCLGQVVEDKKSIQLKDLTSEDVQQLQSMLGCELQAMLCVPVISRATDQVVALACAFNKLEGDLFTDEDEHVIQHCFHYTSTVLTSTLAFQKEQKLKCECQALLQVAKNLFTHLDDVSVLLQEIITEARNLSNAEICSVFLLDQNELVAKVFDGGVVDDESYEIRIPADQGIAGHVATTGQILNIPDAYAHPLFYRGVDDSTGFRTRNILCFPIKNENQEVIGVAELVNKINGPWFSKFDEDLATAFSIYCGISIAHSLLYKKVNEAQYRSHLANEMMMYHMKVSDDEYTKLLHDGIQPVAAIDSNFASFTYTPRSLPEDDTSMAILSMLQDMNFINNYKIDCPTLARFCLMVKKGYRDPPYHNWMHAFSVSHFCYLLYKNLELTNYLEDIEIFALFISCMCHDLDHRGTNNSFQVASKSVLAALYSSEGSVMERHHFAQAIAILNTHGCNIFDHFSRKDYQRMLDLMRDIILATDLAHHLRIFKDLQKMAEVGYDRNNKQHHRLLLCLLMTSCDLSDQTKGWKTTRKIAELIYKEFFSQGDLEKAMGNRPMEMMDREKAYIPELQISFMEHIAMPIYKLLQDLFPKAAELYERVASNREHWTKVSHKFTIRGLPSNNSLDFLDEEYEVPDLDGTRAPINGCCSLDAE

| SMILES | expression of MCP-1, KC, IL-6 and IL-1β in the CIA model [1] | remaining activity at 3 µM (MSK2_h) | remaining activity at 3 µM (PKC-eta_h) | remaining activity at 3 µM (ZIPK_h) | IC50 (RetA) | inhibition at 10 µM (5-lipoxygenase) | inhibition at 10 µM (PDE2A) | inhibition at 10 µM (PDE5) | inhibition at 10 µM (Adenosine A1) | inhibition at 10 µM (Adenosine A2a) | inhibition at 10 µM (Adenosine A3) | exposure producing myelosuppression [2] | fold higher exposure producing myelosuppression than R406 [2] |
| --- | --- | --- | --- | --- | --- | --- | --- | --- | --- | --- | --- | --- | --- |
| COc1cc(Nc2ncc(F)c(Nc3ccc4c(n3)NC(=O)C(C)(C)O4)n2)cc(OC)c1OC [R406, reference compound] | inhibited | – | – | – | – | – | – | – | – | – | – | – | – |
| c1cc(CC2CCOCC2)n2nc(Nc3ccc4c(NC5CCOCC5)n[nH]c4c3)nc2c1 [CC-509, [3-(2H-3,4,5,6-tetrahydropyran-4-ylamino)(1H-indazol-6-yl)][5-(2H-3,4,5,6-tetrahydropyran-4-ylmethyl)(2H-1,2,4-triazolo[1,5-a]pyridin-2-yl)]amine] | – | 81% | 102% | 96% | 750 ± 190 nM | 73% | 89% | 90% | 89% | 96% | 84% | 630 µM·h | approximately 5 fold |
